Assay results taken from ChEMBL document CHEMBL5463722, “Data for DCP probe BI-5524” (2023).
The source made the active and inactive calls. The rule behind the calls is not given here.

Columns and labels:
[1] = target: 5-hydroxytryptamine receptor 3A (Homo sapiens) (UniProt P46098); experiment: 5-HT3 Eurofins-Cerep binding assay; set-up: ligand concentration 0.5 nM; settings: Compound concentration 10.0 uM
[2] = target: Histamine H2 receptor (Homo sapiens) (UniProt P25021); experiment: H2 Eurofins-Cerep binding assay; set-up: ligand concentration 0.075 nM; settings: Compound concentration 10.0 uM
Histamine H2 receptor (Homo sapiens), sequence (P25021 whole entry): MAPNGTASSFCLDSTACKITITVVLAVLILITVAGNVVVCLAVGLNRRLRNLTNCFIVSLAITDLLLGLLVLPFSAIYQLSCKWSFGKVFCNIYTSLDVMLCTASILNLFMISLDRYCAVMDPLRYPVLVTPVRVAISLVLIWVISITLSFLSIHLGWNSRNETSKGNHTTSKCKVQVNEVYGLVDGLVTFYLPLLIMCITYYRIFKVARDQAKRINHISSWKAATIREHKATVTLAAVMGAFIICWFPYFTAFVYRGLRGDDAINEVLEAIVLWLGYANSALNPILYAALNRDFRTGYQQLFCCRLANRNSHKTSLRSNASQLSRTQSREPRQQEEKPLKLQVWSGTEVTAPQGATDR

[3] = species: Rattus norvegicus; experiment: KV channel Eurofins-Cerep binding assay; set-up: ligand concentration 0.01 nM; settings: Compound concentration 10.0 uM
[4] = target: D(1A) dopamine receptor (Homo sapiens) (UniProt P21728); experiment: D1 Eurofins-Cerep binding assay; set-up: ligand concentration 0.3 nM; settings: Compound concentration 10.0 uM
[5] = target: T1, Cholecystokinin receptor type A (Homo sapiens) (UniProt P32238); experiment: CCK1 (CCKA) Eurofins-Cerep binding assay; set-up: ligand concentration 0.08 nM
T1 sequence (whole entry): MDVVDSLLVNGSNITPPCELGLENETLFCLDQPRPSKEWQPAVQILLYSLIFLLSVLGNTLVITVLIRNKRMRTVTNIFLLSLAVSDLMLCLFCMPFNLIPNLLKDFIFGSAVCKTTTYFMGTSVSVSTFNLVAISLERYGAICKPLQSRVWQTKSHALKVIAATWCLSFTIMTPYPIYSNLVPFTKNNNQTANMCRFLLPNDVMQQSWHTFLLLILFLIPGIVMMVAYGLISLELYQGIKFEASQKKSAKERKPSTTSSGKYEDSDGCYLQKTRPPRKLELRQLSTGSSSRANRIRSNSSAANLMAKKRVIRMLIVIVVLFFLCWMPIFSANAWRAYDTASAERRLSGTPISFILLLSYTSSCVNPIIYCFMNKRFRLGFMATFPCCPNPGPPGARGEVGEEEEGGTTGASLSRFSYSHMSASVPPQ

[6] = target: Muscarinic acetylcholine receptor M2 (Homo sapiens) (UniProt P08172); experiment: M2 Eurofins-Cerep binding assay; set-up: ligand concentration 2 nM; settings: Compound concentration 10.0 uM
Muscarinic acetylcholine receptor M2 (Homo sapiens), sequence (P08172 whole entry): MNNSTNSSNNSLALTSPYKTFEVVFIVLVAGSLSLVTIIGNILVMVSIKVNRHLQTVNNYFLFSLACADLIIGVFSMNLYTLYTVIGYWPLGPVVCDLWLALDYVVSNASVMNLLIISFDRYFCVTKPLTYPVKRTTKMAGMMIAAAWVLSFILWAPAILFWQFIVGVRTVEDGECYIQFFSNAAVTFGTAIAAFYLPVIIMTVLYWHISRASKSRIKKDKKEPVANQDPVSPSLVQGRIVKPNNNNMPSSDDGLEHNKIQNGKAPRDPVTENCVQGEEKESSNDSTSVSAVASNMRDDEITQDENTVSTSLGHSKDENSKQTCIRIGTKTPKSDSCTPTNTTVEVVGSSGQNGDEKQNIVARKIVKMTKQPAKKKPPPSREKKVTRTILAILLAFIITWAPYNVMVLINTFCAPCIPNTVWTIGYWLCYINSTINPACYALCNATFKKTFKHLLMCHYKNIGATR

[7] = target: Histamine H1 receptor (Homo sapiens) (UniProt P35367); experiment: H1 Eurofins-Cerep binding assay; set-up: ligand concentration 1 nM; settings: Compound concentration 10.0 uM
[8] = target: Sodium-dependent noradrenaline transporter (Homo sapiens) (UniProt P23975); experiment: norepinephrine transporter Eurofins-Cerep binding assay; set-up: ligand concentration 1 nM; settings: Compound concentration 10.0 uM
Sodium-dependent noradrenaline transporter (Homo sapiens), sequence (P23975 whole entry): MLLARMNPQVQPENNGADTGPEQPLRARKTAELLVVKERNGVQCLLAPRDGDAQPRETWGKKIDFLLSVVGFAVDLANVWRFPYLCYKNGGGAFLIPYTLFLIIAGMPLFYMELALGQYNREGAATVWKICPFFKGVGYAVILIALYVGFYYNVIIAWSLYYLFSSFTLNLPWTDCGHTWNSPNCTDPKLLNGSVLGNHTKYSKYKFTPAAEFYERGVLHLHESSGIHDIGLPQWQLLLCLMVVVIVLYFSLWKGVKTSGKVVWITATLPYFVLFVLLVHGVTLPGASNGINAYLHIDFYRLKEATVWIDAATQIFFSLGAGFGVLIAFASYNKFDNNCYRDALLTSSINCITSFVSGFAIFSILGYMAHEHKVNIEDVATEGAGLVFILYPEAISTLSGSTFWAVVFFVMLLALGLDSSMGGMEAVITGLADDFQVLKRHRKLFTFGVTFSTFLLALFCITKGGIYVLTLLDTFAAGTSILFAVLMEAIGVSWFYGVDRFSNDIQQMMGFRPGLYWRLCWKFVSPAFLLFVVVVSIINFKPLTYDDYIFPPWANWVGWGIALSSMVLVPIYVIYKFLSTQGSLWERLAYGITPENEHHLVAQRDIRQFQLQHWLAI

[9] = species: Rattus norvegicus; experiment: Activity against BZD/CENTR/R in the Eurofins Cerep SafetyScreen44 (BI) by Radioactive Assay (Cerep_28); format: protein-complex assay
[10] = target: Beta-1 adrenergic receptor (Homo sapiens) (UniProt P08588); experiment: beta 1 Eurofins-Cerep binding assay; set-up: ligand concentration 0.3 nM
Beta-1 adrenergic receptor (Homo sapiens), sequence (P08588 whole entry, looked up): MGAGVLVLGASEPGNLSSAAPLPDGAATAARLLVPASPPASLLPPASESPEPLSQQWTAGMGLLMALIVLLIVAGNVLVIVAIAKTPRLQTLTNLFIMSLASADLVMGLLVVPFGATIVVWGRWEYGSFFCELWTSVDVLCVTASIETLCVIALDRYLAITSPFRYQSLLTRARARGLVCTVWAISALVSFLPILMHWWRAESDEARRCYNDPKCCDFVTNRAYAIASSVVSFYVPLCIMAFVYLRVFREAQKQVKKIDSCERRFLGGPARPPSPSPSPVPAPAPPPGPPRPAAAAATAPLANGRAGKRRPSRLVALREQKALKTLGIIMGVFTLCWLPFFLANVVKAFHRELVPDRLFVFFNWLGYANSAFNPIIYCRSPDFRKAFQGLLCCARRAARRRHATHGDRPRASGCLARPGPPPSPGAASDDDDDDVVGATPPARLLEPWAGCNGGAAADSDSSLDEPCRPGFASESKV

[11] = target: Caspase-9 (Homo sapiens) (UniProt P55211); settings: Compound concentration 1.0 uM
Description: % Enzyme Activity of Caspase 9 in the Reaction Biology protease panel at 10.0 µM

[12] = target: Vasopressin V1a receptor (Homo sapiens) (UniProt P37288); experiment: V1a Eurofins-Cerep binding assay; set-up: ligand concentration 0.3 nM; settings: Compound concentration 10.0 uM
Vasopressin V1a receptor (Homo sapiens), sequence (P37288 whole entry, looked up): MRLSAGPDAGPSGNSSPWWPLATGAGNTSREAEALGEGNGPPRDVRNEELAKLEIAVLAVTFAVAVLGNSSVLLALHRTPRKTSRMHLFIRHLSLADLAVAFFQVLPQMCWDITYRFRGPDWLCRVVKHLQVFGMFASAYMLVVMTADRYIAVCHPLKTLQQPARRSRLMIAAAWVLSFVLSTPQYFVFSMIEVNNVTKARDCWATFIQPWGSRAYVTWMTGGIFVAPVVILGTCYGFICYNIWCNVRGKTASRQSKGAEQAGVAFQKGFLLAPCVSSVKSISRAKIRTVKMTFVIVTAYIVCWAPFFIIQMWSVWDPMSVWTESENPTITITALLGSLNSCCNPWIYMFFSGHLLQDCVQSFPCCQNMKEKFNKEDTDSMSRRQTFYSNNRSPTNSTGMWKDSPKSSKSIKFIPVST

[13] = target: Muscarinic acetylcholine receptor M1 (Homo sapiens) (UniProt P11229); experiment: M1 Eurofins-Cerep binding assay; set-up: ligand concentration 2 nM; settings: Compound concentration 10.0 uM
[14] = target: Glucocorticoid receptor (Homo sapiens) (UniProt P04150); experiment: GR Eurofins-Cerep binding assay; settings: Compound concentration 10.0 uM
[15] = target: P2X purinoceptor (Oryctolagus cuniculus) (UniProt G1U3D6); experiment: Activity against P2X/R in the Eurofins SafetyScreen44 (BI) by Others (Old_Cerep_29); settings: Rattus norvegicus; Compound concentration 10.0 uM
[16] = target: 5-hydroxytryptamine receptor 2B (Homo sapiens) (UniProt P41595); experiment: 5-HT2B Eurofins-Cerep binding assay; settings: Compound concentration 10.0 uM
[17] = target: P2Y purinoceptor 1 (Rattus norvegicus) (UniProt P49651); experiment: Activity against P2Y/RA in the Eurofins SafetyScreen44 (BI) by Radioactive Assay (Old_Cerep_30); settings: Compound concentration 10.0 uM
[18] = target: Adenosine receptor A2a (Homo sapiens) (UniProt P29274); experiment: A2A Eurofins-Cerep binding assay; set-up: ligand concentration 6 nM
Adenosine receptor A2a (Homo sapiens), sequence (P29274 whole entry): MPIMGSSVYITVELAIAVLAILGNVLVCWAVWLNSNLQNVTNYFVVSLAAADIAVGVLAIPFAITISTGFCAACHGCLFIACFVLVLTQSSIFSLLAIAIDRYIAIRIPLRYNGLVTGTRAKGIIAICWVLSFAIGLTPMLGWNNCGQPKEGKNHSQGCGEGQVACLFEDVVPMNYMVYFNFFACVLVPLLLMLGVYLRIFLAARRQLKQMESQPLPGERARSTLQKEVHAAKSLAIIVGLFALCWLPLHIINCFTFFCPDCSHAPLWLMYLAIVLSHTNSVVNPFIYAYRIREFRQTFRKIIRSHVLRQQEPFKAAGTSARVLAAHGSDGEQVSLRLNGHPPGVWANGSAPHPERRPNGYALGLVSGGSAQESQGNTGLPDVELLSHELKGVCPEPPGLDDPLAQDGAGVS

[19] = target: Delta-type opioid receptor (Homo sapiens) (UniProt P41143); experiment: delta (DOP) Eurofins-Cerep binding assay; set-up: ligand concentration 0.5 nM; settings: Compound concentration 10.0 uM
[20] = target: Beta-2 adrenergic receptor (Homo sapiens) (UniProt P07550); experiment: beta 2 Eurofins-Cerep binding assay
Beta-2 adrenergic receptor (Homo sapiens), sequence (P07550 whole entry, looked up): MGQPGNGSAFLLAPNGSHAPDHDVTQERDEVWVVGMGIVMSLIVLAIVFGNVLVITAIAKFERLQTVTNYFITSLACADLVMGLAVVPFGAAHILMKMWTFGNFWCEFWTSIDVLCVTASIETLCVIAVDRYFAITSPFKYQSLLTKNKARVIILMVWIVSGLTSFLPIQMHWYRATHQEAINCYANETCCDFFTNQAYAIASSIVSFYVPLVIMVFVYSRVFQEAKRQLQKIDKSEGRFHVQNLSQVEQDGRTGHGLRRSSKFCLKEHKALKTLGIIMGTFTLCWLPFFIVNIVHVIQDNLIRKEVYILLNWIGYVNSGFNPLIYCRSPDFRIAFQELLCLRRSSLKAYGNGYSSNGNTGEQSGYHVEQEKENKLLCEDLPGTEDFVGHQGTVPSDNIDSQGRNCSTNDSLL

[21] = target: T2, Neutrophil elastase (Homo sapiens, UniProt P08246); experiment: Inhibition of zymosan-stimulated ELANE activity in human plasma
T2 sequence (P08246 whole entry): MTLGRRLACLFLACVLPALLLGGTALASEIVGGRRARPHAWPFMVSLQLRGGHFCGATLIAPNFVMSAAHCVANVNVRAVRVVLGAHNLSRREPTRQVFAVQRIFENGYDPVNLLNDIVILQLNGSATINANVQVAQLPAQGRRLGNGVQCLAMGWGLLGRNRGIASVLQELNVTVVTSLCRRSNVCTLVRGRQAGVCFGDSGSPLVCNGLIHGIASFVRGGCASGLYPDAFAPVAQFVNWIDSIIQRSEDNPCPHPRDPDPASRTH

[22] = target: Endothelin-1 receptor (Homo sapiens) (UniProt P25101); experiment: ETA Eurofins-Cerep binding assay; set-up: ligand concentration 0.03 nM; settings: Compound concentration 10.0 uM
[23] = target: Adenosine receptor A1 (Homo sapiens) (UniProt P30542); experiment: A1 Eurofins-Cerep binding assay; set-up: ligand concentration 1 nM
[24] = target: Cathepsin G (Homo sapiens, UniProt P08311); experiment: CTSG inhibition assay
[25] = target: Mu-type opioid receptor (Homo sapiens) (UniProt P35372); experiment: mu (MOP) Eurofins-Cerep binding assay; set-up: ligand concentration 0.5 nM; settings: Compound concentration 10.0 uM
Mu-type opioid receptor (Homo sapiens), sequence (P35372 whole entry): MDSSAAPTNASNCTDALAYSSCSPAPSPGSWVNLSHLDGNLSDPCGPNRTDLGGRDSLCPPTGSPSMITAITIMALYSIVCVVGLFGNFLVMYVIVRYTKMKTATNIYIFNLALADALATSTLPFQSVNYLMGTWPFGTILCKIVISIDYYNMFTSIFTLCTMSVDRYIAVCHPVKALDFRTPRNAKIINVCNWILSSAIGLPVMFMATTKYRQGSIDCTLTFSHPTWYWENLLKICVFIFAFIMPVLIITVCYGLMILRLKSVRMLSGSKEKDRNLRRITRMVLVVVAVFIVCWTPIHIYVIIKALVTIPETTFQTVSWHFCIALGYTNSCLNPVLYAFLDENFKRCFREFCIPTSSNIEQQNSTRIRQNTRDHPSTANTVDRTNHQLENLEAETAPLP

[26] = target: D(2) dopamine receptor (Homo sapiens) (UniProt P14416); experiment: Agonist activity in the Eurofins Cerep SafetyScreen44 (BI) against D2SH_AGON by Scintillation counting (Cerep_1322); settings: Compound concentration 10.0 uM
D(2) dopamine receptor (Homo sapiens), sequence (P14416 whole entry): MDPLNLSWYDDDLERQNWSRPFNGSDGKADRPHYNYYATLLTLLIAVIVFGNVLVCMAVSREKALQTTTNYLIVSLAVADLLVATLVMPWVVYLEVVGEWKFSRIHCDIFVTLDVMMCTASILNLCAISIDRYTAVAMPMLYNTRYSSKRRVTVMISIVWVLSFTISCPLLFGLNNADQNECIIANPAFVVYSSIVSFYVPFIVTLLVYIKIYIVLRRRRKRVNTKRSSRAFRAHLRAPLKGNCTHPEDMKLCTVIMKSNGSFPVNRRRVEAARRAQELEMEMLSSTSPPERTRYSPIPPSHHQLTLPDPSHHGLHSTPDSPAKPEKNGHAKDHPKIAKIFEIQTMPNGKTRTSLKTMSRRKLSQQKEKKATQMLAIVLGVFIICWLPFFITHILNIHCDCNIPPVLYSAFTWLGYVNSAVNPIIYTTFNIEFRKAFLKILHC

[27] = target: Type-1 angiotensin II receptor (Homo sapiens) (UniProt P30556); experiment: AT1 Eurofins-Cerep binding assay
Type-1 angiotensin II receptor (Homo sapiens), sequence (P30556 whole entry): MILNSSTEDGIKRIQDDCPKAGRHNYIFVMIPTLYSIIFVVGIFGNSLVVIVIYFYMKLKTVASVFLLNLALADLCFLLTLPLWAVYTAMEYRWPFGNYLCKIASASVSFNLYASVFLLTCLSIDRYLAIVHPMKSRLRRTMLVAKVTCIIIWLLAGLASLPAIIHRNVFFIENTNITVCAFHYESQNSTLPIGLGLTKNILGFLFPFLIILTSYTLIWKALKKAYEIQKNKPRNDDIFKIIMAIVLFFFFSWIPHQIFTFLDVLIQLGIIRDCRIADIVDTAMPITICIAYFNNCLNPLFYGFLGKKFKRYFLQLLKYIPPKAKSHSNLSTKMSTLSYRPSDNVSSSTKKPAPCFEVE

[28] = target: 5-hydroxytryptamine receptor 2C (Homo sapiens) (UniProt P28335); experiment: Activity against 5HT2C/H in the Eurofins SafetyScreen44 (BI) (Cerep_1003); settings: Compound concentration 10.0 uM
[29] = target: D(4) dopamine receptor (Homo sapiens) (UniProt P21917); experiment: D4.4 Eurofins-Cerep binding assay; settings: Compound concentration 10.0 uM
[30] = target: 5-hydroxytryptamine receptor 2A (Homo sapiens) (UniProt P28223); experiment: Agonist activity in the Eurofins Cerep SafetyScreen44 (BI) against 5HT2AH_AGON by Scintillation counting (Cerep_471); settings: Compound concentration 10.0 uM
[31] = target: T2, Neutrophil elastase; experiment: ELANE inhibitor assay (human). (Biochemical assay using purified commercial human ELANE and a fluorescent peptide substrate).
[32] = target: Muscarinic acetylcholine receptor M3 (Homo sapiens) (UniProt P20309); experiment: M3 Eurofins-Cerep binding assay; set-up: ligand concentration 0.2 nM; settings: Compound concentration 10.0 uM
Muscarinic acetylcholine receptor M3 (Homo sapiens), sequence (P20309 whole entry, looked up): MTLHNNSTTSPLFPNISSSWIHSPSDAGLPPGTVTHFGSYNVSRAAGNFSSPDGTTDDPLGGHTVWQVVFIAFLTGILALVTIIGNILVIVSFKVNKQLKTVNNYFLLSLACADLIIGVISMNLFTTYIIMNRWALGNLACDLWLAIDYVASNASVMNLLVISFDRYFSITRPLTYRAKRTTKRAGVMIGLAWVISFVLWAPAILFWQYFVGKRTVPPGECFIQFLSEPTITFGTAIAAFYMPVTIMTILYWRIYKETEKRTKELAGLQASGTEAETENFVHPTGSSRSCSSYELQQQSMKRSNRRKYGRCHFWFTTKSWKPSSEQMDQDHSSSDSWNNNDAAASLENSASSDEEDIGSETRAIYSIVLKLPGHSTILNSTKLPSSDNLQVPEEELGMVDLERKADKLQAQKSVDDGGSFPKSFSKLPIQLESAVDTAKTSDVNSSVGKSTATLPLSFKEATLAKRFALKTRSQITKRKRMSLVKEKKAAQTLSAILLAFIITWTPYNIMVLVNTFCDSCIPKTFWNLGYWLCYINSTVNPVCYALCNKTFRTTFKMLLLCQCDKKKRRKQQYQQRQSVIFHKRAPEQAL

[33] = target: Sodium-dependent dopamine transporter (Homo sapiens) (UniProt Q01959); experiment: dopamine transporter Eurofins-Cerep binding assay; settings: Compound concentration 10.0 uM
[34] = target: 5-hydroxytryptamine receptor 1A (Homo sapiens) (UniProt P08908); experiment: 5-HT1A Eurofins-Cerep binding assay; set-up: ligand concentration 0.5 nM; settings: Compound concentration 10.0 uM
[35] = target: 3',5'-cyclic-AMP phosphodiesterase 4D (Homo sapiens) (UniProt Q08499); experiment: Inhibitor of PDE4D2 in the Eurofins Cerep SafetyScreen44 (BI) by Scintillation counting (Cerep_4077); settings: Compound concentration 10.0 uM
[36] = target: Alpha-1A adrenergic receptor (Homo sapiens) (UniProt P35348); experiment: Agonist activity in the Eurofins Cerep SafetyScreen44 (BI) against ALPHA1AH_ANTAG by Scintillation counting (Cerep_2338); settings: Compound concentration 10.0 uM
[37] = target: Prostaglandin G/H synthase 1 (Homo sapiens) (UniProt P23219); experiment: Inhibitor of COX-1 in the Eurofins Cerep SafetyScreen44 (BI) by Fluorimetry (Cerep_4173); settings: Compound concentration 10.0 uM

In the case of `CC(C)(O)CNC(=O)N1C(=O)N(c2cccc(C(F)(F)F)c2)C2=C(C(=O)CC2)[C@H]1c1ccc(C#N)cc1`, the residual activity [1] is reported as 108%, the residual activity [2] is reported as 114% and the residual activity [3] is reported as 102%. It also gave a residual activity [4] of 96%, a residual activity ([5]; Compound concentration 10.0 uM) of 89% and a residual activity ([5]; Compound concentration 30.0 uM) of 89%. The residual activity [6] was 121%, the residual activity [7] was 108% and the residual activity [8] was 98%. For the same molecule, the residual activity ([9]; Compound concentration 10.0 uM) was 119%, the residual activity ([9]; Compound concentration 30.0 uM) was 116% and the residual activity ([10]; Compound concentration 10.0 uM) was 100%. For the same molecule, the residual activity ([10]; Compound concentration 30.0 uM) was 100%, the % Enzyme Activity (relative to DMSO controls, average n=2) [11] was 98.8% and the residual activity [12] was 102%. For the same molecule, the residual activity [13] was 103%, the residual activity [14] was 107% and the residual activity [15] was 103%. It also gave a residual activity [16] of 130%, a residual activity [17] of 88% and a residual activity ([18]; Compound concentration 10.0 uM) of 100%. It also gave a residual activity ([18]; Compound concentration 30.0 uM) of 83%, a residual activity [19] of 101% and a residual activity ([20]; Compound concentration 10.0 uM) of 87%. For the same molecule, the residual activity ([20]; Compound concentration 30.0 uM) was 92%, the IC50 [21] was 1.2 nM (active) and the residual activity [22] was 99%. For the same molecule, the residual activity ([23]; Compound concentration 10.0 uM) was 107%, the residual activity ([23]; Compound concentration 30.0 uM) was 102% and the IC50 [24] was > 10000 nM (not active). For the same molecule, the residual activity [25] was 82%, the residual activity [26] was 89% and the residual activity ([27]; Compound concentration 10.0 uM) was 116%. For the same molecule, the residual activity ([27]; Compound concentration 30.0 uM) was 92%, the residual activity [28] was 94% and the residual activity [29] was 98%. The residual activity [30] was 69%, the IC50 [31] was 0.5 nM (active) and the residual activity [32] was 84%. The residual activity [33] was 110% and the residual activity [34] was 72%.

`CC(C)(O)CNC(=O)N1C(=O)N(c2cccc(C(F)(F)F)c2)C2=C(C(=O)CC2)[C@@H]1c1ccc(C#N)cc1` showed a residual activity [1] of 81%, a residual activity [2] of 105% and a residual activity [3] of 101%. The residual activity [4] was 100%, the residual activity ([5]; Compound concentration 10.0 uM) was 97% and the residual activity [6] was 103%. The residual activity [7] was 101%, the residual activity [8] was 95% and the residual activity ([9]; Compound concentration 10.0 uM) was 101%. It also gave a residual activity ([10]; Compound concentration 10.0 uM) of 89%, a % Enzyme Activity (relative to DMSO controls, average n=2) [11] of 92.6% and a residual activity [12] of 99%. It also gave a residual activity [13] of 114%, a residual activity [14] of 96% and a residual activity [16] of 97%. The residual activity [35] was 114%, the residual activity ([18]; Compound concentration 10.0 uM) was 109% and the residual activity [19] was 100%. For the same molecule, the residual activity ([20]; Compound concentration 10.0 uM) was 101%, the residual activity [36] was 102% and the IC50 [21] was 492 nM (not active). The residual activity [22] was 95%, the residual activity [25] was 104% and the residual activity [26] was 99%. For the same molecule, the residual activity [37] was 105%, the residual activity [30] was 111% and the IC50 [31] was 41 nM (not active). For the same molecule, the residual activity [32] was 95%, the residual activity [33] was 98% and the residual activity [34] was 91%.
